The values below come from ChEMBL document CHEMBL1201862, “PubChem BioAssay data set” (2004).

Structures are written as SMILES. Several values for one entry are separate records, joined by “and”; a condition that tells them apart may be missing. Equal values may be shown once. Activity calls are given as the source filed them.

The target in one test is Tumor necrosis factor (Homo sapiens, UniProt P01375). The experiment in a line: TNFa-triggered NF-kB activation inhibitors, SAR follow-up, cell-based, revised (AID 2337). The test is classed as functional.
Test [1] deals with HEK293. Description: NOD1 signaling inhibitors, primary screen, cell-based, luminescence, uHTS (AID 1578). The test is classed as functional. Conditions: Homo sapiens.
Test [2] relates to HEK293. Description: cells. The test is classed as functional, cell-based. As to conditions: Homo sapiens.
In test [3] the test system is HEK293. Description: cells. The test is classed as functional, cell-based. Conditions: Homo sapiens. This is another data set of the same source.
Test [4] deals with HEK293. The experiment in a line: cells. The test is classed as functional, cell-based. Conditions: Homo sapiens. This is another data set of the same source.
The test system of test [5] is HEK293. Description: NOD2 signaling inhibitors in MDP-stimulated cells, cell-based, uHTS, luminescence (AID 2001). In kind it is functional. As to conditions: Homo sapiens.
The target in test [6] is T1, Nucleotide-binding oligomerization domain-containing protein 1 (Homo sapiens, UniProt Q9Y239).
T1 sequence (Q9Y239 whole entry): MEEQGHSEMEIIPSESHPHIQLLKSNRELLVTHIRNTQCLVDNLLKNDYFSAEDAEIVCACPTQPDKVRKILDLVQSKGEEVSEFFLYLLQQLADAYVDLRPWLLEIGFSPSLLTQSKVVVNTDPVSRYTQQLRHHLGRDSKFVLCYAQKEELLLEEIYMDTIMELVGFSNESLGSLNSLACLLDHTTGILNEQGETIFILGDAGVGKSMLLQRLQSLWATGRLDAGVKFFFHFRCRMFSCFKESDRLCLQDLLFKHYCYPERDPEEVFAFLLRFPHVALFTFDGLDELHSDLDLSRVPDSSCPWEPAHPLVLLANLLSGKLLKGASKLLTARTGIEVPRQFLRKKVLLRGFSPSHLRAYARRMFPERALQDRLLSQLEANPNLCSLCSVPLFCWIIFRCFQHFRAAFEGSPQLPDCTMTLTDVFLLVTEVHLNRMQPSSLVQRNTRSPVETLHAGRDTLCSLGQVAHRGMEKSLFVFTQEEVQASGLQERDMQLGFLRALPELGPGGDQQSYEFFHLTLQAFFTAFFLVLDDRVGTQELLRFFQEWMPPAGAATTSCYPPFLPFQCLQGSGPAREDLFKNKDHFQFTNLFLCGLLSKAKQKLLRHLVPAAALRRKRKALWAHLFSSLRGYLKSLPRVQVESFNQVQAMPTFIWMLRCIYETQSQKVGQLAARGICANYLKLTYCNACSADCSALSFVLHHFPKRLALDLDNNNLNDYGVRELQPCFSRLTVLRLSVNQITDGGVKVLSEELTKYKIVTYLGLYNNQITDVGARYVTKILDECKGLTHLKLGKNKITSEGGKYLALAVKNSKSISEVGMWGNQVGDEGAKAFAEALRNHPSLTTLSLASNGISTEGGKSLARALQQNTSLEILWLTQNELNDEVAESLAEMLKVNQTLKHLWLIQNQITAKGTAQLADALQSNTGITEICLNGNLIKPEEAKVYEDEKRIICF
Description: NOD1 signaling inhibitors, SAR follow-up, revised (AID 2333). The test is classed as functional.

Test [7] has as its target Nucleotide-binding oligomerization domain-containing protein 2 (Homo sapiens, UniProt Q9HC29). The experiment in a line: NOD2 signaling inhibitors, cell-based, luminescence, uHTS, HEK293 (AID 1566). The test is classed as functional.
Test [8] relates to HEK293. The experiment in a line: cells. Conditions: Homo sapiens.
For test [9], the target named is Glyceraldehyde-3-phosphate dehydrogenase (Homo sapiens, UniProt P04406).
Test [10] deals with T2, Alkaline phosphatase, tissue-nonspecific isozyme (Homo sapiens, UniProt P05186).
T2 sequence (P05186 whole entry): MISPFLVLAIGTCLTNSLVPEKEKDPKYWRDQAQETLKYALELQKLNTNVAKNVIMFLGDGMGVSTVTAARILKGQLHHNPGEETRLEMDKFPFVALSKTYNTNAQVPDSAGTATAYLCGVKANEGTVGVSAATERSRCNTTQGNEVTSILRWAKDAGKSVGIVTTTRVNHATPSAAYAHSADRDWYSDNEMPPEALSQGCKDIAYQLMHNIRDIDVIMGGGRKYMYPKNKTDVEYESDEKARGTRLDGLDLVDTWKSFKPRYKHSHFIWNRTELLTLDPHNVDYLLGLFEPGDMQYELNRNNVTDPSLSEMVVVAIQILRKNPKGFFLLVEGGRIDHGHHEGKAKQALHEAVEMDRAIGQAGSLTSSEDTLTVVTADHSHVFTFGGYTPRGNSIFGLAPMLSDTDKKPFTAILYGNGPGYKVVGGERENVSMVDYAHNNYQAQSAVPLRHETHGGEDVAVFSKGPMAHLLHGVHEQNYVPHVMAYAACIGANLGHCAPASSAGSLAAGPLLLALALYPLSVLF
Description: human TNAP enzyme inhibitors, SAR follow-up, biochemical, luminescent, dose response (AID 1056).

For test [11], the target named is Dual specificity tyrosine-phosphorylation-regulated kinase 1A (Rattus norvegicus, UniProt Q63470). The test is classed as biochemical, Homo sapiens.
Test [12] deals with T3, Microphthalmia-associated transcription factor (Homo sapiens, UniProt O75030).
T3 sequence (O75030 whole entry): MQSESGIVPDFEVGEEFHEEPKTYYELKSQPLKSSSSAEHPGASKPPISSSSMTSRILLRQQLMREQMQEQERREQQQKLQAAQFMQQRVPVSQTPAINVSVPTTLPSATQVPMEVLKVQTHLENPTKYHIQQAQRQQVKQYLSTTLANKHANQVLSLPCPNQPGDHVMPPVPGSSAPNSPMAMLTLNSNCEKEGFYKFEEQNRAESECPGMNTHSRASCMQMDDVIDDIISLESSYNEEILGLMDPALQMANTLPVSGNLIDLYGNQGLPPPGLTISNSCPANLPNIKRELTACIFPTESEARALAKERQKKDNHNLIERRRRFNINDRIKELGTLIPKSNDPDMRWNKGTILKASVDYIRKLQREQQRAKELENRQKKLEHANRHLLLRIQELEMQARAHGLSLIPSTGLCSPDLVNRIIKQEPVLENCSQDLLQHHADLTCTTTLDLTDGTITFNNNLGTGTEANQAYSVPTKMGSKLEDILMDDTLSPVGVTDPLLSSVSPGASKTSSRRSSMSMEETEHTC
Description: TRPM1 promoter luciferase signal decrease, dose response, MITF inhibitor project, cell-based, SK-MEL-5, cherry-picked, set 3 (AID 493073).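 Note: SK-MEL-5 melanoma cells with luciferase driven by the MITF target TRPM1 promoter.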 The test is classed as functional.

A short description of another test: cells. The test is classed as functional.
The nature of test [13]: THP-1 cell cytotoxicity, dose response, cytotoxicity control for non-replicating M. tuberculosis project (AID 489025). In kind it is functional.
The target in test [14] is T4, Heat shock factor protein 1 (Mus musculus, UniProt P38532).
T4 sequence (P38532 whole entry): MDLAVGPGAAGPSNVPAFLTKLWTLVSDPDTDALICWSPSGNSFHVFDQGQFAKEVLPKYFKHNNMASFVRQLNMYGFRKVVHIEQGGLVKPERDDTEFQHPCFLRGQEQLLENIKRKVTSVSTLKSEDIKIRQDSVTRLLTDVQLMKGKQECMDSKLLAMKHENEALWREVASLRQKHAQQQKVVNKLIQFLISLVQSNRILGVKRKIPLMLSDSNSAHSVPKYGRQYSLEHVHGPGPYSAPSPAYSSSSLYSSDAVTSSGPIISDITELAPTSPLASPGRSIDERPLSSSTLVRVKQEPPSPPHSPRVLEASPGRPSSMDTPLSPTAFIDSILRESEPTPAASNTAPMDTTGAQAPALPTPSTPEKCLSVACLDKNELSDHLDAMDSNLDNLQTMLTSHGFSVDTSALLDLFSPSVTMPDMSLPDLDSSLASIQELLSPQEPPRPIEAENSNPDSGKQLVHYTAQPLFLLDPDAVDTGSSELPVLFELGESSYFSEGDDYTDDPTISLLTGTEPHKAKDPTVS
Description: inhibition of MG132-induced HSE-luciferase signal, confirmation, cell-based, NIH3T3, luminescence, dose retest (AID 2382).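 Note: NIH3T3 fibroblasts with HSF1-driven luciferase reporter stressed by proteasome inhibitor MG132; luminescence from HSF1-driven luciferase expression after 8 hours of MG132 stress.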 The test is classed as functional.

Test [15] can be described thus: HEp-2 cell cytotoxicity, dose response, cytotoxicity control for RSV inhibitor project, HTS (AID 2410). The test is classed as functional. As to conditions: human respiratory syncytial virus.
Test [16] can be described thus: microbe, parasite or virus in culture. The test is classed as functional. As to conditions: Mycobacterium tuberculosis.
Test [17] concerns the target T5, Rac GTPase-activating protein 1 (Homo sapiens, UniProt Q9H0H5).
T5 sequence (Q9H0H5 whole entry): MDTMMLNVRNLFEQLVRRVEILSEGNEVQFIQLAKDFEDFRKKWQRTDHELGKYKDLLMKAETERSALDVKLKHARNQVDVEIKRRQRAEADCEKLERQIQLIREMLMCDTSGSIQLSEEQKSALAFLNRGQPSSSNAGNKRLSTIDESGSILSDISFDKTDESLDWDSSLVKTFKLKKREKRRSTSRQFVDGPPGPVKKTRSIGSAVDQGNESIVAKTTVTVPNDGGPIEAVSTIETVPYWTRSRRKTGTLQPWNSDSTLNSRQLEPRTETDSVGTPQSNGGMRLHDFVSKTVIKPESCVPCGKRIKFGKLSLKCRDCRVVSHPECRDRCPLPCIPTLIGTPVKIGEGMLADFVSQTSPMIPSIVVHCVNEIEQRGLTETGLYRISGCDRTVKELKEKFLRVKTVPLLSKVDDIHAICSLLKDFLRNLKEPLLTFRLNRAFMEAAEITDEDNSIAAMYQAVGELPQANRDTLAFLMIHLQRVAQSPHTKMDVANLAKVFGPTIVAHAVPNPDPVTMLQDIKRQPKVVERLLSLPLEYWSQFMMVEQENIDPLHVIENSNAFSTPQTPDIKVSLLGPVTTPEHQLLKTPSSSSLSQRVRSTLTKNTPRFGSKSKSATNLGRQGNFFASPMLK
Description: MgcRacGAP GTPase-activating activity inhibitors, confirmation, biochemical, ADP Hunter fluorescence, primary and confirmatory (AID 624330). In kind it is functional.

Sequence of Tumor necrosis factor (P01375 whole entry): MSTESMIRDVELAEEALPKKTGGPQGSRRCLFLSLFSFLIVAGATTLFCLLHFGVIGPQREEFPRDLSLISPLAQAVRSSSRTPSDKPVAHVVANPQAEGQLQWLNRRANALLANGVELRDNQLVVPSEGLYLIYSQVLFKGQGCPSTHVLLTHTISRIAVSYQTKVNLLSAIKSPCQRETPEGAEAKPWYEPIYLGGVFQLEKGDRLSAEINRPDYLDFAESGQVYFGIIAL
Sequence of Glyceraldehyde-3-phosphate dehydrogenase (P04406 whole entry): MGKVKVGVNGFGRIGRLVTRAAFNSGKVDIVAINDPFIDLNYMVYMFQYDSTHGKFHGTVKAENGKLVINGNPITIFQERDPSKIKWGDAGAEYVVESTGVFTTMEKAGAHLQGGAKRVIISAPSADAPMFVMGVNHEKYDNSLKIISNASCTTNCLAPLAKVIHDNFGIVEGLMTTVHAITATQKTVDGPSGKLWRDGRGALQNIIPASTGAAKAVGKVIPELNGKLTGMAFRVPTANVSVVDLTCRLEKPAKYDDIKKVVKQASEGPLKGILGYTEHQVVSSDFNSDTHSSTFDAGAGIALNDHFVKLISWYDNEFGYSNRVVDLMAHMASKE
Sequence of Nucleotide-binding oligomerization domain-containing protein 2 (Q9HC29 whole entry, the tested form may be a part): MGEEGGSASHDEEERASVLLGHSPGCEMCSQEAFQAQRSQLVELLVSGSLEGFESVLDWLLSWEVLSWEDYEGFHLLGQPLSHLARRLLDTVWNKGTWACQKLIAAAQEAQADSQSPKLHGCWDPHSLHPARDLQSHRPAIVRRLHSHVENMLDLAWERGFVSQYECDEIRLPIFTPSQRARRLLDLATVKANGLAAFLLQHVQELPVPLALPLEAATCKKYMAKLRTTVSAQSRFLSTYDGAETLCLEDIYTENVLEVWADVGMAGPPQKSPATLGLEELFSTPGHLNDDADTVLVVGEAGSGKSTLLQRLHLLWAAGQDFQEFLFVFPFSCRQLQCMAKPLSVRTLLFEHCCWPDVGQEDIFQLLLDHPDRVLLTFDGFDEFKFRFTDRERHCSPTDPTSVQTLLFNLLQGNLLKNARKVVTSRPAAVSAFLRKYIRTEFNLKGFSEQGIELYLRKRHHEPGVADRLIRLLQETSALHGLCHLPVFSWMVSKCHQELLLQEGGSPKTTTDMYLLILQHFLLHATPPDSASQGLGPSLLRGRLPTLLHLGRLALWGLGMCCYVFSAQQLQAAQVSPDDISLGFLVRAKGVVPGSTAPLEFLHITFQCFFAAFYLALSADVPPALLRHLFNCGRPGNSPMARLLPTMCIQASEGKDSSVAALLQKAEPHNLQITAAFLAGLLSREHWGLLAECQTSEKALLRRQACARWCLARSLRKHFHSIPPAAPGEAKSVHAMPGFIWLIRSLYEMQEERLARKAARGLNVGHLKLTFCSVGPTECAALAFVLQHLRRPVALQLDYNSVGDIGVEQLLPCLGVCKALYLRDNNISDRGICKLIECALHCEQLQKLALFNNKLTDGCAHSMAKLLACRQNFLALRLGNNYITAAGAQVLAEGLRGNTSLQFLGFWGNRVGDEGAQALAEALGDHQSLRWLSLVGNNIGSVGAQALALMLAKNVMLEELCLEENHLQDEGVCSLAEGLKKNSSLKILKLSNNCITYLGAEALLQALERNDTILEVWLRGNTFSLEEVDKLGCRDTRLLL

Broadly, the IC50 is the concentration at which inhibition is half-maximal. The EC50 is the concentration needed to bring the measured effect to its halfway point. For the compound `O=C(Nc1sc2c(c1C(=O)O)CCCC2)c1ccccc1Cl`, the IC50 at Tumor necrosis factor was > 20 µM (inactive) and 12.9 µM (active); with HEK293 [2], > 20 µM (inactive); in the test with HEK293 [3], > 20 µM (inactive); in the test with HEK293 [4] it was > 20 µM (inactive); in the test with HEK293 [5] it was 18.5 µM (inactive); in test [6] it was 5.12 µM (active) and 4.45 µM (active). Besides, the IC50 in the test with HEK293 [8] is > 20 µM (inactive). For the same compound, the EC50 with HEK293 [1] was 14.5 µM (active); in [7] it was > 20 µM (inactive).

On to `O=S(=O)(Nc1cccnc1)c1ccccc1`, for which the IC50 was > 100 µM (not active) in test [9] and > 100 µM (inactive) in [10].

Take `CCc1nnc(NC(=O)c2ccc(Cl)c(S(=O)(=O)N3CCc4ccccc4C3)c2)s1`: the EC50 in the test on HEK293 [1] was 2.1 µM (active); in test [7] it was 5.23 µM (active). Further, the IC50 with HEK293 [2] is 15.5 µM (active); with HEK293 [3] it was 5.23 µM (active); with HEK293 [4], 17 µM (active); in the test with HEK293 [5], 4.3 µM (active).

As for `COc1ccc(OC)c(NC(=O)c2cnc3ccccc3c2)c1`, the half-maximal inhibitory concentration (IC50) was > 10 µM (inconclusive) in test [9] and > 10 µM (inactive) in [10].

The term AC50 denotes the concentration giving half of the maximal activity seen. Regarding `Cc1ccc(CNC(=O)c2cc3c(=O)n(C)c4ccccc4c3n2C)o1`, the AC50 in test [11] was > 120 µM (inactive).

`COc1ccc(OC)c(NC(=O)c2cccnc2)c1`: the IC50 was > 100 µM (not active) in test [9] and > 100 µM (inactive) in test [10].

Turning to `O=C(Nc1ccccc1)c1n[nH]c2c1COc1ccccc1-2`, the IC50 is > 100 µM (not active) in test [9] and > 100 µM (inactive) in test [10].

With `COc1cccc(C(=O)Nc2sc3c(c2C(=O)O)CCCC3)c1`, the IC50 is > 20 µM (inactive) on Tumor necrosis factor; > 20 µM (inactive) in the test on HEK293 [2]; > 20 µM (inactive) with HEK293 [3]; > 20 µM (inactive) in the test with HEK293 [4]; > 20 µM (inactive) with HEK293 [5]; 1.76 µM (active) in test [6]. Besides, the IC50 in the test with HEK293 [8] was > 20 µM (inactive). Moreover, the EC50 (in the test on HEK293 [1]; in test [7]) was > 20 µM (inactive) in each case.

Turning to `CCOc1ccc(NC(=O)c2ccc(CN3CCc4ccccc43)cc2)cc1`, the IC50 (at Tumor necrosis factor; in [6]; in the test on HEK293 [8]) was > 20 µM (inactive) each time.

As for `O=C(N/N=C/c1ccc([N+](=O)[O-])s1)c1ccccc1`, the AC50 in test [12] was 2.29 µM (active). In addition, the IC50 in “cells” was 10.3 µM (active). Besides, in [13], the CC50 was 33.3 µM (active).

For `CNC(=S)N/N=C/c1ccc(-c2cccc(C(=O)O)c2)o1`, the EC50 in [14] was > 195 µM (not active). For the same compound, the AC50 in test [11] was 7.05 µM (active).

Take `CN1/C(=N\O)c2cccc3cccc1c23`: the AC50 in test [11] is 1.28 µM (active). In addition, the CC50 is 24.9 µM (active) in test [15] and > 40 µM (active) in test [16]. In test [17], the IC50 was 24.8 µM (active).

On to `Cc1nccn1-c1cccnc1`, for which the results for the IC50 in test [9] and in test [10] were > 100 µM (not active) and > 100 µM (inactive), respectively.
